Results published in PubChem BioAssay AID1845195 (Molecular Pharmacology Branch, DTP, NCI, 2023).
“And” between values parts separate entries of the source, which are not always exact repeats. Equal entries are not always repeated.

Tested on: 156681-154-R-J1 tumor spheroid viability
Test: Anticancer human tumor 156681-154-R-J1 patient-derived melanoma cell line growth inhibition
Conditions: spheroids with HUVEC and MSC; for viability, T/C: stronger effect = lower value
Method in brief: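 Complex tumor spheroids combined malignant cells with endothelial cells and mesenchymal stem cells. DNA-damaging drugs and DNA repair inhibitors were tested alone and in combination, at half-log dilutions down from clinical Cmax (top 10 microM if Cmax unknown), 0.25% DMSO final.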

[1] = curve of first compound, second compound 0.003 µM
[2] = curve of first compound, second compound 0.00949 µM
[3] = curve of first compound, second compound 0.03 µM
[4] = curve of first compound, second compound 0.0949 µM
[5] = curve of first compound, second compound 0.3 µM
[6] = second compound 0.003 µM, first compound 0.0949 µM
[7] = second compound 0.003 µM, first compound 0.3 µM
[8] = second compound 0.003 µM, first compound 0.949 µM
[9] = second compound 0.003 µM, first compound 3 µM
[10] = second compound 0.00949 µM, first compound 0.0949 µM
[11] = second compound 0.00949 µM, first compound 0.3 µM
[12] = second compound 0.00949 µM, first compound 0.949 µM
[13] = second compound 0.00949 µM, first compound 3 µM
[14] = second compound 0.03 µM, first compound 0.0949 µM
[15] = second compound 0.03 µM, first compound 0.3 µM
[16] = second compound 0.03 µM, first compound 0.949 µM
[17] = second compound 0.03 µM, first compound 3 µM
[18] = second compound 0.0949 µM, first compound 0.0949 µM
[19] = second compound 0.0949 µM, first compound 0.3 µM
[20] = second compound 0.0949 µM, first compound 0.949 µM
[21] = second compound 0.0949 µM, first compound 3 µM
[22] = second compound 0.3 µM, first compound 0.0949 µM
[23] = second compound 0.3 µM, first compound 0.3 µM
[24] = second compound 0.3 µM, first compound 0.949 µM
[25] = second compound 0.3 µM, first compound 3 µM
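Note: spheroids exposed to compounds for 7 days before readout.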
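Throughout, for viability, T/C: percent of vehicle control viability where 100% = DMSO-treated spheroids.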

CNCc1ccc(-c2cc(-c3nc(-c4ccc(S(=O)(=O)C(C)C)cc4)cnc3N)on2)cc1 + Cn1nnc2c(C(N)=O)ncn2c1=O
IC50 (curve of first compound, second compound 1 µM): 1230 nM | IC50 (curve of first compound, second compound 3.16 µM): 915 nM | IC50 (curve of first compound, second compound 10 µM): 717 nM | IC50 (curve of first compound, second compound 31.6 µM): 494 nM | IC50 (curve of first compound, second compound 100 µM): 81.6 nM | viability, T/C (second compound 1 µM, first compound 0.00949 µM): 107% | viability, T/C (second compound 1 µM, first compound 0.03 µM): 100% | viability, T/C (second compound 1 µM, first compound 0.0949 µM): 98.8% | viability, T/C (second compound 1 µM, first compound 0.3 µM): 75.5% | viability, T/C (second compound 1 µM, first compound 0.949 µM): 62.3% | viability, T/C (second compound 1 µM, first compound 3 µM): 19% | viability, T/C (second compound 3.16 µM, first compound 0.00949 µM): 88.2% | viability, T/C (second compound 3.16 µM, first compound 0.03 µM): 100% | viability, T/C (second compound 3.16 µM, first compound 0.0949 µM): 90% | viability, T/C (second compound 3.16 µM, first compound 0.3 µM): 72.6% | viability, T/C (second compound 3.16 µM, first compound 0.949 µM): 50.7% | viability, T/C (second compound 3.16 µM, first compound 3 µM): 16.8% | viability, T/C (second compound 10 µM, first compound 0.00949 µM): 93.6% | viability, T/C (second compound 10 µM, first compound 0.03 µM): 73.9% | viability, T/C (second compound 10 µM, first compound 0.0949 µM): 80.7% | viability, T/C (second compound 10 µM, first compound 0.3 µM): 64.8% | viability, T/C (second compound 10 µM, first compound 0.949 µM): 46% | viability, T/C (second compound 10 µM, first compound 3 µM): 11.1% | viability, T/C (second compound 31.6 µM, first compound 0.00949 µM): 63.5% | viability, T/C (second compound 31.6 µM, first compound 0.03 µM): 65.1% | viability, T/C (second compound 31.6 µM, first compound 0.0949 µM): 59.5% | viability, T/C (second compound 31.6 µM, first compound 0.3 µM): 59.8% | viability, T/C (second compound 31.6 µM, first compound 0.949 µM): 38% | viability, T/C (second compound 31.6 µM, first compound 3 µM): 5.46% | viability, T/C (second compound 100 µM, first compound 0.00949 µM): 54.2% | viability, T/C (second compound 100 µM, first compound 0.03 µM): 53% | viability, T/C (second compound 100 µM, first compound 0.0949 µM): 54.1% | viability, T/C (second compound 100 µM, first compound 0.3 µM): 34.6% | viability, T/C (second compound 100 µM, first compound 0.949 µM): 22.1% | viability, T/C (second compound 100 µM, first compound 3 µM): 1.01%

O=C(c1cc(Cc2n[nH]c(=O)c3ccccc23)ccc1F)N1CCN(C(=O)C2CC2)CC1 + CC[C@@]1(O)C(=O)OCc2c1cc1n(c2=O)Cc2cc3c(CN(C)C)c(O)ccc3nc2-1
IC50 [1]: 21300 nM | IC50 [2]: 14800 nM | IC50 [3]: < 94.9 nM | IC50 [4]: < 94.9 nM | IC50 [5]: < 94.9 nM | viability, T/C [6]: 103% | viability, T/C [7]: 80.6% | viability, T/C [8]: 74.2% | viability, T/C [9]: 74.5% | viability, T/C (second compound 0.003 µM, first compound 9.49 µM): 63% | viability, T/C (second compound 0.003 µM, first compound 30 µM): 42.1% | viability, T/C [10]: 59.1% | viability, T/C [11]: 64.2% | viability, T/C [12]: 76.7% | viability, T/C [13]: 62.6% | viability, T/C (second compound 0.00949 µM, first compound 9.49 µM): 62% | viability, T/C (second compound 0.00949 µM, first compound 30 µM): 31.2% | viability, T/C [14]: 38.4% | viability, T/C [15]: 41.1% | viability, T/C [16]: 36.7% | viability, T/C [17]: 29.8% | viability, T/C (second compound 0.03 µM, first compound 9.49 µM): 15.3% | viability, T/C (second compound 0.03 µM, first compound 30 µM): 15.5% | viability, T/C [18]: 33.5% | viability, T/C [19]: 35.5% | viability, T/C [20]: 33% | viability, T/C [21]: 25.7% | viability, T/C (second compound 0.0949 µM, first compound 9.49 µM): 21.7% | viability, T/C (second compound 0.0949 µM, first compound 30 µM): 9.48% | viability, T/C [22]: 46% | viability, T/C [23]: 46.4% | viability, T/C [24]: 46.6% | viability, T/C [25]: 46.2% | viability, T/C (second compound 0.3 µM, first compound 9.49 µM): 42.3% | viability, T/C (second compound 0.3 µM, first compound 30 µM): 13.3%

Cc1sc2c(c1C)C(c1ccc(Cl)cc1)=NC(CC(=O)Nc1ccc(O)cc1)c1nnc(C)n1-2 (configuration not stated) + CC[C@@]1(O)C(=O)OCc2c1cc1n(c2=O)Cc2cc3c(CN(C)C)c(O)ccc3nc2-1
IC50 [1]: 1460 nM | IC50 [2]: 1960 nM | IC50 [3]: 78.6 nM | IC50 [4]: < 9.49 nM | IC50 [5]: < 9.49 nM | viability, T/C (second compound 0.003 µM, first compound 0.00949 µM): 155% | viability, T/C (second compound 0.003 µM, first compound 0.03 µM): 103% | viability, T/C [6]: 81.1% | viability, T/C [7]: 70% | viability, T/C [8]: 61.1% | viability, T/C [9]: 47.4% | viability, T/C (second compound 0.00949 µM, first compound 0.00949 µM): 68.4% | viability, T/C (second compound 0.00949 µM, first compound 0.03 µM): 88.6% | viability, T/C [10]: 82.6% | viability, T/C [11]: 75.4% | viability, T/C [12]: 62.4% | viability, T/C [13]: 42.8% | viability, T/C (second compound 0.03 µM, first compound 0.00949 µM): 50.1% | viability, T/C (second compound 0.03 µM, first compound 0.03 µM): 54.9% | viability, T/C [14]: 51.3% | viability, T/C [15]: 39% | viability, T/C [16]: 29.8% | viability, T/C [17]: 19.1% | viability, T/C (second compound 0.0949 µM, first compound 0.00949 µM): 22.5% | viability, T/C (second compound 0.0949 µM, first compound 0.03 µM): 21.8% | viability, T/C [18]: 21% | viability, T/C [19]: 22.5% | viability, T/C [20]: 24.6% | viability, T/C [21]: 24.4% | viability, T/C (second compound 0.3 µM, first compound 0.00949 µM): 33.2% | viability, T/C (second compound 0.3 µM, first compound 0.03 µM): 29.1% | viability, T/C [22]: 31.1% | viability, T/C [23]: 24.8% | viability, T/C [24]: 25.4% | viability, T/C [25]: 16.5%

O=C(c1cc(Cc2n[nH]c(=O)c3ccccc23)ccc1F)N1CCN(C(=O)C2CC2)CC1
viability, T/C (compound 0.0949 µM): 84% and 87.4% and 95% | viability, T/C (compound 0.3 µM): 82.5% and 83.7% and 107% | viability, T/C (compound 0.949 µM): 103% and 85.3% and 77.8% | viability, T/C (compound 3 µM): 64.4% and 72.5% and 82.7% | viability, T/C (compound 9.49 µM): 62.2% and 60.3% and 65.8% | viability, T/C (compound 30 µM): 50.7% and 52.9% and 63.1% | IC50 (curve of compound): > 30000 nM
